Data from ChEMBL document CHEMBL1201862, “PubChem BioAssay data set” (2004).
Calls of active or inactive are those of the source.

Assays:
[1] = microbe, parasite or virus in culture; assay type: functional; conditions: Mycobacterium tuberculosis
[2] = molecular target: T1, Endoribonuclease toxin MazF (Escherichia coli K-12, UniProt P0AE70); test: MazF toxin RNase activators, dose response, biochemical, fluorescence, single-stranded RNA substrate, uHTS hits (AID 588481); assay type: functional
T1 sequence (P0AE70 whole entry): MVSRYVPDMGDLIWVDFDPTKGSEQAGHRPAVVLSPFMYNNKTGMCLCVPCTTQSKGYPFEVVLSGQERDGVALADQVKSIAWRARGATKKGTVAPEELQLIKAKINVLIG

[3] = molecular target: T1, Endoribonuclease toxin MazF; test: fluorescent RNA oligo signal without MazF, dose response, counter-screen for MazEF activator project, biochemical, fluorescence, single-stranded RNase substrate (AID 588502); assay type: functional
[4] = molecular target: T2, Sentrin-specific protease 1 (Homo sapiens, UniProt Q9P0U3); test: potency of human SENP1 inhibitors, dose response, biochemical, kinetic FRET (AID 651697); assay type: functional; conditions: read-out: IC50_Mean
T2 sequence (Q9P0U3 whole entry): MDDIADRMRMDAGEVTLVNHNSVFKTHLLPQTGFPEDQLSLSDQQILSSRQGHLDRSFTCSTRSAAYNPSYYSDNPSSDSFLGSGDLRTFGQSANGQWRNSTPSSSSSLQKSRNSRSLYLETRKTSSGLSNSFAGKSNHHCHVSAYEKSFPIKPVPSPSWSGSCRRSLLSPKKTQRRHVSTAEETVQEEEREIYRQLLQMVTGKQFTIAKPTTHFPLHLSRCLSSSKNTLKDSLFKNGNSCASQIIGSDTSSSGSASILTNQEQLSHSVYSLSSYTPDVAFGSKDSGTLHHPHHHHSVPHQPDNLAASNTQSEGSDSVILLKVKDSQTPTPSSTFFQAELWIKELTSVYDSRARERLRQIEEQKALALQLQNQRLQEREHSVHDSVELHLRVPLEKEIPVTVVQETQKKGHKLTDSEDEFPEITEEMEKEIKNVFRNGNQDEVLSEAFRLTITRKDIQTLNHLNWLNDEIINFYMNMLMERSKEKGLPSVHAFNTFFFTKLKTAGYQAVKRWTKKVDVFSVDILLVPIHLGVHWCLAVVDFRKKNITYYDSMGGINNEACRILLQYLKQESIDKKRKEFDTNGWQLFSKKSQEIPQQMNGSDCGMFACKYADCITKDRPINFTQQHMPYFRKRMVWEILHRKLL

[5] = molecular target: T2, Sentrin-specific protease 1; test: Dose response confirmation of small molecule inhibitors of the catalytic domain of the SUMO protease, SENP1 in a FRET assay.; assay type: functional; conditions: read-out: IC50_Mean
[6] = molecular target: Major prion protein (Homo sapiens, UniProt P04156); assay type: functional, cell-based
[7] = molecular target: T3, Cytochrome P450 1A2 (Homo sapiens, UniProt P05177);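 note: PubChem cytochrome P450 panel assay, CYP1A2 panel member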
T3 sequence (P05177 whole entry): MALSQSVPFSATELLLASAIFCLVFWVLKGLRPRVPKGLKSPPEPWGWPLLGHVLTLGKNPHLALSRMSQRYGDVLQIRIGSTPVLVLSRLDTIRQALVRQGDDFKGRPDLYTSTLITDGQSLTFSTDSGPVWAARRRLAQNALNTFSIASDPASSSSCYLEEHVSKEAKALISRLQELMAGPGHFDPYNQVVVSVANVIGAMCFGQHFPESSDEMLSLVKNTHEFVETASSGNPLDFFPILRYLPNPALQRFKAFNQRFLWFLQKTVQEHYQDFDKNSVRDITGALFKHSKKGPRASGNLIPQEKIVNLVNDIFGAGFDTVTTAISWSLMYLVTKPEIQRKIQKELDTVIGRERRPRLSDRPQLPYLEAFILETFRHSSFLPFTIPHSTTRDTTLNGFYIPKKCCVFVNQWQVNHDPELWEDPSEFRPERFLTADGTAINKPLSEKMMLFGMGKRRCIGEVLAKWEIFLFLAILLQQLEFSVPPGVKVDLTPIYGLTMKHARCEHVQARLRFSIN

[8] = cells
[9] = Luminescence Cell-Based Dose Retest to Confirm Inhibitors of Cancer Stem Cells. [Related pubchem assays (depositor defined):AID2717, AID2721]; assay type: functional; conditions: Homo sapiens
[10] = molecular target: T4, Histone-lysine N-methyltransferase NSD2 (Homo sapiens, UniProt O96028); assay type: biochemical
T4 sequence (O96028 whole entry): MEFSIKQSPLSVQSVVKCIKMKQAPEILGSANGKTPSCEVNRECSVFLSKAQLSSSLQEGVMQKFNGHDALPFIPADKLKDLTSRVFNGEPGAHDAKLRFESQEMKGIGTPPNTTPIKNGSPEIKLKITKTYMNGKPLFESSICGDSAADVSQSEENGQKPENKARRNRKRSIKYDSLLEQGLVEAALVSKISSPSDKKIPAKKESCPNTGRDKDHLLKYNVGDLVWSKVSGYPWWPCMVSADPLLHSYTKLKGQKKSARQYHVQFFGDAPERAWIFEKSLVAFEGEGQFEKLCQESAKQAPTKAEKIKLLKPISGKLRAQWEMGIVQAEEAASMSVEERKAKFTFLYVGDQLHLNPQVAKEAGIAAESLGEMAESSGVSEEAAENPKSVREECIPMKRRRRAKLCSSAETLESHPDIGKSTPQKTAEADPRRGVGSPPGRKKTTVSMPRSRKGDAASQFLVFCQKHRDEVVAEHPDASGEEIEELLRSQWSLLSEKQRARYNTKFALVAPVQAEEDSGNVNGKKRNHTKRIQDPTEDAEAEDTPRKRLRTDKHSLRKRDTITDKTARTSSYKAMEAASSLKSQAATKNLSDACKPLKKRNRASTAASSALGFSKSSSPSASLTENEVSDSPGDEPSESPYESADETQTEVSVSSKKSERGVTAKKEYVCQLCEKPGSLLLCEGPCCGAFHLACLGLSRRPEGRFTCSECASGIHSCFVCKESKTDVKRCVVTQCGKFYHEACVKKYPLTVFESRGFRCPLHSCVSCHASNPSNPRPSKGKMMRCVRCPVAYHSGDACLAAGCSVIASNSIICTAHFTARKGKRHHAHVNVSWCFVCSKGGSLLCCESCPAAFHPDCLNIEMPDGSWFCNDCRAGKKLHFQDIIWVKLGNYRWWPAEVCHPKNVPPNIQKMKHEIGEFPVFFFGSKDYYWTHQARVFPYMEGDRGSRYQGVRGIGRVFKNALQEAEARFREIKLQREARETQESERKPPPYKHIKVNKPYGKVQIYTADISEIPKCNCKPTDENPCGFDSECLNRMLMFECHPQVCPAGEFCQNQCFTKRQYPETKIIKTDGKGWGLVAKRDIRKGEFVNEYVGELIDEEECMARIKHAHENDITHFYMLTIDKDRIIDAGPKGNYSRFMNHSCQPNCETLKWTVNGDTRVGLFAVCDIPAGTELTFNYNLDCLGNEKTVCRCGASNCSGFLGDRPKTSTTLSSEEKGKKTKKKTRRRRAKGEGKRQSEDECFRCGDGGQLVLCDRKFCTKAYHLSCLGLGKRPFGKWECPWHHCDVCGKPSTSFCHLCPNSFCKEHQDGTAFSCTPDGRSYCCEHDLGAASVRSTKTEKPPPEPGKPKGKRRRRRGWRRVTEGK

[11] = molecular target: T5, Galanin receptor type 3 (Homo sapiens, UniProt O60755); test: Fluorescence-based cell-based primary high throughput dose response assay to identify antagonists of the Galanin Receptor 3 (GalR3).; assay type: functional
T5 sequence (O60755 whole entry): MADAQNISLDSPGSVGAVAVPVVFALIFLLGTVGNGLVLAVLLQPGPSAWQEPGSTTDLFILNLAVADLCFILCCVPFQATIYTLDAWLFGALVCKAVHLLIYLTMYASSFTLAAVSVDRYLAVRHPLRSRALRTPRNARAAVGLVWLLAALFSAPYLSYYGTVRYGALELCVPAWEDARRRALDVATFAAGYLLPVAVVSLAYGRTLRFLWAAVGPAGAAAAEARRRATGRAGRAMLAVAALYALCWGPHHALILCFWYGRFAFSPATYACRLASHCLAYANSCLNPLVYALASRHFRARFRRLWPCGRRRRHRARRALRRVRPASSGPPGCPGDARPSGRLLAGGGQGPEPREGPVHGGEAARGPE

[12] = cells; assay type: functional, cell-based; conditions: HEK-CNG
[13] = HEp-2 cell cytotoxicity, dose response, cytotoxicity control for RSV inhibitor project, HTS (AID 2410); assay type: functional; conditions: human respiratory syncytial virus
[14] = tested on: Streptococcus sp. 'group A'; test: growth inhibition of control SK(-) GAS strain, dose response, counter-screen for streptokinase expression inhibitor project, luminescence, kanamycin, BacTiterGlo, confirmation (AID 1900); assay type: functional, organism-based
[15] = molecular target: T6, Streptokinase A (Streptococcus pyogenes serotype M1, UniProt P10520); test: S. pyogenes streptokinase expression inhibitors, potency, dose response, plasminogen activation absorbance, OD405 (AID 1914); assay type: functional, Streptococcus pyogenes M1 GAS;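 note: secreted streptokinase activity via plasminogen activation per viability signal from cell pellet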
T6 sequence (P10520 whole entry): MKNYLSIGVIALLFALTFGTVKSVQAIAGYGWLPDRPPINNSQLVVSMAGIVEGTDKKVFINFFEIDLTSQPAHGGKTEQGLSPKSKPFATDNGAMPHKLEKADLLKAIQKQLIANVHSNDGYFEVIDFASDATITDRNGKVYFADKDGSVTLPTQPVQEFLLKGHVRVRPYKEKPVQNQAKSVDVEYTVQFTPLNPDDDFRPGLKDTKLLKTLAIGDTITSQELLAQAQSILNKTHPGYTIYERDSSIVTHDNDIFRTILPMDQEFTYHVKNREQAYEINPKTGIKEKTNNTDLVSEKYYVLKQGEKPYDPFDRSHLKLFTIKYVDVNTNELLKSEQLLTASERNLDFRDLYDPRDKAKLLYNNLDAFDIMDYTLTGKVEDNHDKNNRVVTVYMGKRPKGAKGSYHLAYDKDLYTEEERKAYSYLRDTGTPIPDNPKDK

[16] = tested on: Streptococcus; test: Group A Streptococcus viability loss, dose response, counter-screen for streptokinase expression inhibitor project, luminescence, BacTiterGlo (AID 1915); assay type: functional, organism-based;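 note: potency for reduction of bacterial viability or growth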
[17] = inhibitors of HIV Env-driven cell fusion, dose response, cherry-pick (AID 652057); assay type: functional, cell-based
[18] = ZM109 Env clade C HIV-1 fusion inhibitors, dose response, HeLa effector, CEM target cells, luciferase, cherry-pick (AID 652058); assay type: functional, cell-based
[19] = off-target signal loss in HeLa-CEM21 co-culture – HeLa F-luc CTL cells, cherry-picked, counter-screen for HIV-1 Env fusion inhibitor project, dose response (AID 652040); assay type: functional, cell-based;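 note: potency for signal decrease marking cytotoxic or nonspecific inhibition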
[20] = inhibitors of clade B AD8 Env fusion, dose response, cell-based, cherry-pick (AID 652062); assay type: functional;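 note: luciferase signal from cell-cell fusion driven by HIV-1 clade B AD8 Env; potency is for inhibitors of fusion seen as a drop in luminescence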
[21] = molecular target: T7, Small ubiquitin-related modifier 1 (Homo sapiens, UniProt P63165); test: inhibitors of SUMO1 peptide binding, dose response, biochemical, fluorescence polarization, uHTS hits (AID 624382); assay type: functional; conditions: read-out: IC50_Mean
[22] = molecular target: T7, Small ubiquitin-related modifier 1; test: inhibitors of SUMO1 partner interactions, dose response, biochemical, FRET (AID 624383); assay type: functional; conditions: read-out: IC50_Mean
[23] = tested on: BJ; test: cytotoxicity toward BJ-TERT fibroblasts, dose response, cell-based, RAS-independent, luminescence (AID 1933); assay type: functional; conditions: Homo sapiens
[24] = tested on: BJ; test: cells; assay type: functional, cell-based; conditions: Homo sapiens
[25] = tested on: BJ; test: cytotoxicity toward BJ-TERT-LT-ST fibroblasts, dose response, cell-based, RAS-independent, luminescence (AID 1935); assay type: functional; conditions: Homo sapiens;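 note: BJ fibroblasts immortalized with TERT plus LT and ST oncogenes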
[26] = cytotoxicity toward DRD oncogenic fibroblasts, dose response, cell-based, non-viral oncogenic, luminescence (AID 1934); assay type: functional; conditions: Homo sapiens
[27] = tested on: INS1; test: beta cell apoptosis inhibitors, cytokine rescue, dose response, luminescence, retest (AID 449756); assay type: functional, cell-based; conditions: Rattus norvegicus;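 note: cell death triggered by IL-1 beta plus TNF-alpha plus IFN-gamma mixture; protective hits raise ATP signal compared with cytokine alone wells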

c1cc(Nc2cccc3nccnc23)c2nccnc2c1
CC50 [1]: 31.7 µM (active)
EC50 [2]: > 99 µM (inactive)
EC50 [3]: > 99 µM (inactive)
IC50 [4]: 25.6 µM (inactive)
IC50 [5]: 24.5 µM (inactive)

CCCc1nc(SCC(=O)NNC(=O)C2CCCCC2)c2ccccc2n1
IC50 [6]: 0.896 µM (active)
AC50 [7]: 15.8 µM (inconclusive)
IC50 [8]: > 138 µM (inactive)

CCN(CC)CCCNC(=O)c1cc2c(Cl)nc3ccccc3c2s1
AC50 [9]: 1.58 µM (active)
AC50 [10]: 16.8 µM (active)

CC(=O)NC(CSc1cc(C)nc2ccc(Br)cc12)C(=O)O (stereo unspecified)
IC50 [6]: 4.48 µM (active)
IC50 [8]: > 138 µM (inactive)

CC(C)Cn1c(N)c(C(=O)COC(=O)/C=C/c2ccccc2)c(=O)n(C)c1=O
IC50 [11]: > 29.9 µM (inactive)
EC50 [12]: > 29.9 µM (inactive)

COc1ccc(-c2csc(Nc3ccc(S(=O)(=O)Nc4cc(C)on4)cc3)n2)cc1C
CC50 [13]: 8.8 µM (active)
EC50 [14]: 5.7 µM (active)
EC50 [15]: > 150 µM (not active)
EC50 [16]: 10.7 µM (active)
AC50 [10]: 11.9 µM (active)

Cc1c(Br)c(=O)oc2cc(OCC(=O)N3C[C@H]4C[C@@H](C3)c3cccc(=O)n3C4)ccc12
IC50 [6]: 8.34 µM (active)
IC50 [8]: > 138 µM (inactive)

O=C1C=C(c2cccc(Cl)c2O)C[C@@H](c2ccc(Cl)cc2)C1
IC50 [4]: 2.66 µM (active)
IC50 [5]: 1.15 µM (active)

CC[C@@]1(C(=O)OC)N[C@H](CN(C)C(=O)c2ccc(C(C)(C)C)cc2)[C@@H]2C(=O)N(Cc3ccccc3)C(=O)[C@@H]21
AC50 [17]: 6.06 µM (active)
AC50 [18]: 8.17 µM (active)
AC50 [19]: 18.3 µM (active)
AC50 [20]: 10.1 µM (active)

CCOC(=O)C1=C(COc2ccccc2)NC(=O)NC1c1ccc(Cl)cc1 (stereo unspecified)
IC50 [21]: > 66.6 µM (inactive)
IC50 [22]: 15.7 µM (active)

CC(C)(C)c1cc([N+](=O)[O-])cc(C(C)(C)C)c1O
EC50 [23]: > 150 µM (not active)
EC50 [24]: > 150 µM (inconclusive)
EC50 [25]: > 75 µM (inconclusive)
EC50 [26]: 22 µM (active)
AC50 [27]: 4.45 µM (active)
IC50 [11]: 2 µM (active)
EC50 [12]: > 29.9 µM (inactive)
